Reference: US9012433B2, “Substituted tetracycline compounds” (Paratek Pharmaceuticals, Inc., priority 2006, dated 2015)
Values after ≈ are worked out from the molar mass of the structure shown. Where two headings read alike, the source gives them in different places.

Assays:
Format in all cases: cell-based
[1] = tested on: E. coli ATCC 25922; assay: Antibacterial MIC, CLSI broth microdilution; settings: Escherichia coli, ATCC25922; 35° C., 18-24 hours
Method: (§1) Grain (−) and gram (+) antibacterial minimum inhibitory concentration (MIC) values (μg/mL) were obtained using CLSI methodology for anti-bacterial susceptibility testing. On each day of testing, serial dilutions of compounds were prepared in microdilution plates using a Tecan robotic workstation. Mueller Hinton broth cultures of representative sensitive and resistant gram negative strains were grown or adjusted to match the turbidity of a 0.5 McFarland standard. 1:200 dilutions were made in an appropriate broth (cation supplemented Mueller Hinton broth) to allow a final inoculum of 1×10^5 cfu. Plates were incubated at 35° C. in ambient air for 18-24 hours, were read spectrophotometrically and checked manually for evidence of bacterial growth. The lowest dilution of compound that inhibited growth was recorded as the MIC. Lysed horse blood was used to supplement broth for testing S. pneumoniae. The MIC's for each compound were assessed against S. aureus, S. pneumoniae, P. acnes, E. coli and B. theta.

[2] = tested on: P. acnes ATCC 11827; assay: Antibacterial MIC, CLSI broth microdilution; settings: Cutibacterium acnes, ATCC11827; 35° C., 18-24 hours
Method: as §1

[3] = tested on: B. thetaiotaomicron ATCC 29741; assay: Antibacterial MIC, CLSI broth microdilution; settings: Bacteroides thetaiotaomicron
Method: as §1

[4] = tested on: S. aureus RN450; assay: Antibacterial MIC, CLSI broth microdilution; settings: Staphylococcus aureus, RN450; 35° C., 18-24 hours
Method: as §1

[5] = tested on: P. acnes ATCC 6919; assay: Antibacterial MIC, CLSI broth microdilution; settings: Cutibacterium acnes, ATCC6919; 35° C., 18-24 hours
Method: as §1

[6] = tested on: E. coli MG 1655; assay: Antibacterial MIC, CLSI broth microdilution; settings: Escherichia coli, MG1655; 35° C., 18-24 hours
Method: as §1

[7] = tested on: S. pneumoniae 157E - Strep; assay: Antibacterial MIC, CLSI broth microdilution; settings: Streptococcus pneumoniae, 157ESTREP; 35° C., 18-24 hours; lysed horse blood
Method: as §1

[8] = in vitro
Method: Mammalian cell cytotoxicity was assessed to evaluate potential in vivo risks associated with the tetracycline compounds of the invention. A soluble, non-toxic redox dye (“Resazurin”; Alamar Blue) was used to assess a tetracycline compound's effect on cellular metabolism. At the onset of the experiment, cultures of mammalian COS-1 or CHO cells were washed, trypsinized, and harvested. […] On the next day, serial dilutions of test drug were prepared under sterile conditions and transferred to cell plates. Plates were then incubated under the above conditions for 24 hours. Following the incubation period, the media/drug was aspirated, and 50 μL of resazurin was added. Plates were then incubated under the above conditions for 2 hours and then in the dark at room temperature for an additional 30 minutes. Fluorescence measurements were taken (excitation 535 nm, emission 590 nm) and toxic effects in treated versus control cells were compared based on the degree of fluorescence in each well.

[9] = ATCC29741, 35° C., 18-24 hours, read-out: MIC B. thetaiotaomicron ATCC 29741

SMILES | MIC [1] [µg/mL] | MIC [2] [µg/mL] | MIC [3, 9] [µg/mL] | MIC [4] [µg/mL] | MIC [5] [µg/mL] | MIC [6] [µg/mL] | MIC [7] [µg/mL] | IC50 at 24 h ([8]; African green monkey) [µg/mL] | IC50 at 24 h ([8]; Chinese hamster) [µg/mL] | MIC ([3]; ATCC29741, read-out: MIC B. thetaiotaomicron ATCC 29741) [µg/mL]
C=CCN(Cc1ccc(O)c2c1C[C@H]1C[C@H]3[C@H](N(C)C)C(O)=C(C(N)=O)C(=O)[C@@]3(O)C(O)=C1C2=O)C(=O)OC [F] | > 8 | < 4 | 4 to 8 (≈ 7.39 to 14.8 µM) | < 4 | < 4 | > 8 | < 4 | < 35 | < 35 | –
CON(C)Cc1ccc2c(c1O)C(=O)C1=C(O)[C@]3(O)C(=O)C(C(N)=O)=C(O)[C@@H](N(C)C)[C@@H]3C[C@@H]1C2 [GL] | > 8 | 4 to 8 (≈ 8.2 to 16.4 µM) | – | 4 to 8 (≈ 8.2 to 16.4 µM) | 4 to 8 (≈ 8.2 to 16.4 µM) | > 8 | 4 to 8 (≈ 8.2 to 16.4 µM) | 35 to 75 (≈ 71.8 to 154 µM) | 35 to 75 (≈ 71.8 to 154 µM) | 4 to 8 (≈ 8.2 to 16.4 µM)
CCONCc1ccc2c(c1O)C(=O)C1=C(O)[C@]3(O)C(=O)C(C(N)=O)=C(O)[C@@H](N(C)C)[C@@H]3C[C@@H]1C2 [GM] | > 8 | 4 to 8 (≈ 8.2 to 16.4 µM) | 4 to 8 (≈ 8.2 to 16.4 µM) | < 4 | < 4 | > 8 | < 4 | < 35 | < 35 | –
CC1CCN(Cc2cccc3c2C[C@H]2C[C@H]4[C@@H](N(C)C)C(O)=C(C(N)=O)C(=O)[C@@]4(O)C(O)=C2C3=O)CC1 [G] | 4 to 8 (≈ 7.85 to 15.7 µM) | 4 to 8 (≈ 7.85 to 15.7 µM) | > 8 | < 4 | 4 to 8 (≈ 7.85 to 15.7 µM) | > 8 | < 4 | > 75 | > 75 | –
CN(C)[C@H]1C(O)=C(C(N)=O)C(=O)[C@@]2(O)C(O)=C3C(=O)c4cccc(-c5ncccn5)c4C[C@H]3C[C@@H]12 [H] | > 8 | 4 to 8 (≈ 8.39 to 16.8 µM) | > 8 | < 4 | 4 to 8 (≈ 8.39 to 16.8 µM) | > 8 | < 4 | > 75 | > 75 | –
CN(C)[C@@H]1C(O)=C(C(N)=O)C(=O)[C@@]2(O)C(O)=C3C(=O)c4c(O)ccc(-c5ncco5)c4C[C@H]3C[C@@H]12 [J] | < 4 | < 4 | < 4 | < 4 | < 4 | < 4 | < 4 | < 35 | < 35 | –
CN(C)[C@@H]1C(O)=C(C(N)=O)C(=O)[C@@]2(O)C(O)=C3C(=O)c4c(O)ccc(-c5cnoc5)c4C[C@H]3C[C@@H]12 [K] | < 4 | < 4 | < 4 | < 4 | < 4 | < 4 | < 4 | < 35 | < 35 | –
CN(C)[C@@H]1C(O)=C(C(N)=O)C(=O)[C@@]2(O)C(O)=C3C(=O)c4c(O)ccc(-c5nccs5)c4C[C@H]3C[C@@H]12 [L] | < 4 | < 4 | < 4 | < 4 | < 4 | < 4 | < 4 | < 35 | < 35 | –
CCO/N=C(\C)c1cc(N)c(O)c2c1C[C@H]1C[C@H]3[C@H](N(C)C)C(O)=C(C(N)=O)C(=O)[C@@]3(O)C(O)=C1C2=O [M] | < 4 | < 4 | 4 to 8 (≈ 7.77 to 15.5 µM) | < 4 | < 4 | 4 to 8 (≈ 7.77 to 15.5 µM) | < 4 | > 75 | > 75 | –
CCO/N=C(\C)c1cc(CNCC(C)(C)C)c(O)c2c1C[C@H]1C[C@H]3[C@H](N(C)C)C(O)=C(C(N)=O)C(=O)[C@@]3(O)C(O)=C1C2=O [N] | < 4 | < 4 | < 4 | < 4 | < 4 | 4 to 8 (≈ 6.68 to 13.4 µM) | < 4 | > 75 | > 75 | –
CN(C)CC/C(=N\OC(C)(C)C)c1ccc(O)c2c1C[C@H]1C[C@H]3[C@H](N(C)C)C(O)=C(C(N)=O)C(=O)[C@@]3(O)C(O)=C1C2=O [O] | < 4 | < 4 | < 4 | < 4 | < 4 | < 4 | < 4 | 35 to 75 (≈ 59.9 to 128 µM) | < 35 | –
C/C(=N\OC(C)(C)C)c1cc(N)c(O)c2c1C[C@H]1C[C@H]3[C@@H](N(C)C)C(O)=C(C(N)=O)C(=O)[C@@]3(O)C(O)=C1C2=O [R] | > 8 | < 4 | 4 to 8 (≈ 7.37 to 14.7 µM) | < 4 | < 4 | > 8 | < 4 | < 35 | < 35 | –
CN(C)[C@@H]1C(O)=C(C(N)=O)C(=O)[C@@]2(O)C(O)=C3C(=O)c4cccc(-c5ncccn5)c4C[C@H]3C[C@@H]12 [S] | > 8 | 4 to 8 (≈ 8.39 to 16.8 µM) | > 8 | < 4 | 4 to 8 (≈ 8.39 to 16.8 µM) | > 8 | < 4 | > 75 | > 75 | –
CN(C)[C@@H]1C(O)=C(C(N)=O)C(=O)[C@@]2(O)C(O)=C3C(=O)c4c(O)ccc(-c5ccc[nH]5)c4C[C@H]3C[C@@H]12 [T, (4S,4aS,5aR,12aS)-4-Dimethylamino-3,10,12,12a-tetrahydroxy-1,11-dioxo-7-(1H-pyrrol-2-yl)-1,4,4a,5,5a,6,11,12a-octahydro-naphthacene-2-carboxylic acid amide] | < 4 | < 4 | 4 to 8 (≈ 8.34 to 16.7 µM) | < 4 | < 4 | < 4 | < 4 | < 35 | < 35 | –
CN(C)[C@@H]1C(O)=C(C(N)=O)C(=O)[C@@]2(O)C(O)=C3C(=O)c4c(O)ccc(CN5CCCO5)c4C[C@H]3C[C@@H]12 [U] | < 4 | < 4 | 4 to 8 (≈ 8.01 to 16 µM) | < 4 | < 4 | 4 to 8 (≈ 8.01 to 16 µM) | < 4 | > 75 | 35 to 75 (≈ 70.1 to 150 µM) | –
CN(C)[C@@H]1C(O)=C(C(N)=O)C(=O)[C@@]2(O)C(O)=C3C(=O)c4c(O)ccc(/C=N/NC(C)(C)C)c4C[C@H]3C[C@@H]12 [X] | < 4 | < 4 | < 4 | < 4 | < 4 | < 4 | < 4 | < 35 | < 35 | –
